In brackets after ≈: the same amount, converted by molar mass. Activity calls are given as the source filed them. The calls are words filed in the database; no cut-off is given here.
Assays:
Caenorhabditis elegans = experiment: Nematicidal activity against Caenorhabditis elegans; assay type: functional, organism-based
[1] = target: Tyrosine-protein kinase Lck (Homo sapiens) (UniProt P06239); experiment: Inhibition of p56lck
Priestia megaterium [2] = experiment: Antibacterial activity against Bacillus megaterium at 50 ug/disk; assay type: functional
[3] = system: Mycobacterium tuberculosis; experiment: Antitubercular activity against Mycobacterium tuberculosis; assay type: functional
KB = experiment: Cytotoxicity against human KB cells; assay type: functional, cell-based
ZR-75-1 = experiment: Cytotoxicity against human ZR-75-1 cells; assay type: functional, cell-based
[4] = Toxicity in Artemia salina at 0.5 mg/mL after 48 hrs; assay type: organism-based; conditions: in vivo, read-out: Activity
Microbotryum violaceum = experiment: Antifungal activity against Microbotryum violaceae assessed as no colonies of test organism growing within inhibition zone at 50 ug/disk; assay type: functional; conditions: read-out: IZ
Escherichia coli = experiment: Antibacterial activity against Escherichia coli at 50 ug/disk; assay type: functional
[Chlorella] fusca [5] = Antialgal activity against Chlorella fusca assessed as no colonies of test organism growing within inhibition zone at 50 ug/disk; assay type: functional; conditions: Scenedesmus fuscus; read-out: IZ
Mycobacterium avium = experiment: Antitubercular activity against Mycobacterium avium; assay type: functional
Lu1 = experiment: Cytotoxicity against human Lu1 cells; assay type: functional, cell-based
[6] = target: Human immunodeficiency virus type 1 reverse transcriptase (Human immunodeficiency virus 1) (UniProt Q72547); experiment: Inhibition of HIV1 reverse transcriptase
[Chlorella] fusca [7] = Antialgal activity against Chlorella fusca; assay type: functional, Scenedesmus fuscus
A549 = experiment: Cytotoxicity against human A549 cells; assay type: functional, cell-based
[8] = Cytotoxicity against human MEL28 cells; assay type: functional, cell-based; conditions: SK-MEL-28
[9] = Toxicity in Artemia salina at 0.5 mg/mL after 24 hrs; assay type: organism-based; conditions: in vivo, read-out: Activity
[10] = Cytotoxicity against human HMO2 cells; assay type: functional, cell-based
Priestia megaterium [11] = experiment: Antibacterial activity against Bacillus megaterium assessed as no colonies of test organism growing within inhibition zone at 50 ug/disk; assay type: functional; conditions: read-out: IZ
HT-29 = experiment: Cytotoxicity against human HT29 cells; assay type: functional, cell-based
MCF7 = experiment: Cytotoxicity against human MCF7 cells; assay type: functional, cell-based
Trypanosoma cruzi = experiment: Antitrypanosomal activity against Trypanosoma cruzi; assay type: functional, organism-based
Mycotypha microspora [12] = experiment: Antifungal activity against Mycotypha microspora assessed as few colonies of test organism growing within inhibition zone at 50 ug/disk; assay type: functional; conditions: read-out: IZ
[Chlorella] fusca [13] = Antialgal activity against Chlorella fusca at 50 ug/disk; assay type: functional; conditions: Scenedesmus fuscus
[14] = Cytotoxicity against rat L6 cells; assay type: cell-based; conditions: read-out: MIC
P388 = experiment: Cytotoxicity against mouse P388 cells; assay type: functional, cell-based
Fusarium oxysporum = experiment: Antifungal activity against Fusarium oxysporum assessed as few colonies of test organism growing within inhibition zone at 50 ug/disk; assay type: functional; conditions: read-out: IZ
[15] = system: Aspergillus pseudoglaucus; experiment: Antifungal activity against Eurotium repens assessed as few colonies of test organism growing within inhibition zone at 50 ug/disk; assay type: functional; conditions: read-out: IZ
HepG2 = experiment: Cytotoxicity against human HepG2 cells; assay type: functional, cell-based
Mycotypha microspora [16] = experiment: Antifungal activity against Mycotypha microspora assessed as no colonies of test organism growing within inhibition zone at 50 ug/disk; assay type: functional; conditions: read-out: IZ
HeLa = experiment: Cytotoxicity against human HeLa cells; assay type: functional, cell-based
[Chlorella] fusca [17] = Antialgal activity against Chlorella fusca assessed as few colonies of test organism growing within inhibition zone at 50 ug/disk; assay type: functional; conditions: Scenedesmus fuscus; read-out: IZ

Tyrosine-protein kinase Lck (Homo sapiens), sequence (P06239 2-509 limits assumed): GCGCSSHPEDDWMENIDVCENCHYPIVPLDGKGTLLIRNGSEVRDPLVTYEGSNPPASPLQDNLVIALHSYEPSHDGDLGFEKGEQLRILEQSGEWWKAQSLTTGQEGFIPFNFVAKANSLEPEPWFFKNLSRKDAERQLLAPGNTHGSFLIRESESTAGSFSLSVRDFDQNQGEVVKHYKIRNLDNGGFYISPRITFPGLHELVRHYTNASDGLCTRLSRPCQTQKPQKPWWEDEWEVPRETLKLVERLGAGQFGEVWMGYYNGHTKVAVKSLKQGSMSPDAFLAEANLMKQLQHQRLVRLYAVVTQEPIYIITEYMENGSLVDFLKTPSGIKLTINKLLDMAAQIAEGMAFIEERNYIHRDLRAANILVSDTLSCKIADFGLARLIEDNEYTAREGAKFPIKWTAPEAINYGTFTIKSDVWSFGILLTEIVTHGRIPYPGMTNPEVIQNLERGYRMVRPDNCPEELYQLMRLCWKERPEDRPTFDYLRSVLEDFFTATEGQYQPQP

SMILES | Activity (Caenorhabditis elegans) | Activity [1] | Activity (Priestia megaterium [2]) | IC50 (KB) | IC50 (ZR-75-1) | mortality at 48 h, 0.5 mg/mL [4] | zone of inhibition at 50 µg/disc (Microbotryum violaceum) | Activity (Escherichia coli) | IC50 (Lu1) | Activity [6] | IC50 [10] | IC50 (MCF7) | IC50 (HepG2) | other results
C[C@]1(/C=C/Cl)C[C@](Cl)(CBr)[C@@H](Br)C[C@H]1Cl | Active | inactive | inactive | 13.3 µg/mL (≈ 33.3 µM) | 7.8 µg/mL (≈ 19.5 µM) | 100% | 2 mm | inactive | 12.9 µg/mL (≈ 32.3 µM) | inactive |  |  |  | MIC [3]: 32 µg/mL (≈ 80.1 µM); zone of inhibition at 50 µg/disc ([Chlorella] fusca [5]): 16 mm; MIC (Mycobacterium avium): 34 µg/mL (≈ 85.1 µM); MIC ([Chlorella] fusca [7]): 7 µg
C=C1C[C@H](O)[C@H](Br)C(C)(C)[C@@]12CCC(C)=C(Cl)C2 [ELATOL] | Active | inactive |  | > 25 µg/mL | > 25 µg/mL |  | 3 mm |  | > 25 µg/mL | inactive | < 1 µg/mL | < 1 µg/mL | < 1 µg/mL | IC50 (A549): 0.1 µg/mL (≈ 0.3 µM); IC50 [8]: 0.1 µg/mL (≈ 0.3 µM); mortality at 24 h, 0.5 mg/mL [9]: 100%; zone of inhibition at 50 µg/disc (Priestia megaterium [11]): 2 mm; IC50 (HT-29): 0.1 µg/mL (≈ 0.3 µM); IC50 (Trypanosoma cruzi): 0.92 µg/mL (≈ 2.76 µM); zone of inhibition at 50 µg/disc (Mycotypha microspora [12]): 25 mm; Activity ([Chlorella] fusca [13]): inactive; MCC [14]: 3.3 µg/mL; IC50 (P388): 1 µg/mL (≈ 3 µM); zone of inhibition at 50 µg/disc (Fusarium oxysporum): 7 mm; zone of inhibition at 50 µg/disc [15]: 25 mm
C=C1C[C@@H](O)[C@@H](Br)C(C)(C)[C@]12CC[C@@](C)(Br)[C@H](Cl)C2 [OBTUSOL] | Active | inactive | inactive | > 25 µg/mL | > 25 µg/mL | 80% |  | inactive | > 25 µg/mL | inactive | 7 µg/mL (≈ 16.9 µM) | 1.5 µg/mL (≈ 3.62 µM) | < 1 µg/mL | zone of inhibition at 50 µg/disc (Mycotypha microspora [16]): 6 mm; IC50 (HeLa): 50 µg/mL (≈ 121 µM); zone of inhibition at 50 µg/disc ([Chlorella] fusca [17]): 3 mm

From ChEMBL document CHEMBL1142640, “New natural product isolation and comparison of the secondary metabolite content of three distinct samples of the sea hare Aplysia dactylomela from tenerife” (J Nat Prod, 2000)
